Experimental data taken from paper PMC6320955, “Self-Dissolving Microneedle Arrays for Transdermal Absorption Enhancement of Human Parathyroid Hormone (1-34)” (Pharmaceutics, 2018).

Experiments:
[1] = In vivo transdermal delivery of PTH: plasma pharmacokinetics; design: species or system Wistar rats; conditions: sc, 20 ug/animal, rat, subcutaneous injection of PTH solution, 20 µg/rat, ELISA, mean ± SD of three rats
Experimental: The abdominal skin of Wistar rats was shaved while the animals were placed under pentobarbital anesthesia (52 mg/kg as pentobarbital sodium salt). PTH-loaded MNs (20 µg/rat) were then applied to the abdominal skin of rats. The dosage of PTH in MNs was calculated based on the content of PTH in the needle part of MNs. Separately, PTH solution (20 µg/rat) was subcutaneously injected into the backs of rats. At pre-determined intervals, 0.3 mL of blood was withdrawn from the jugular veins while the animals were placed under pentobarbital anesthesia (52 mg/kg as pentobarbital sodium salt) and collected in tubes containing 0.3 mg of EDTA and 150 KIU of aprotinin. The collected blood was then centrifuged for 15 min at 4000 rpm to obtain plasma. […] The peak PTH plasma concentration (Cmax) and time to reach Cmax (Tmax) were determined directly from the plasma concentration–time profiles. Area under the plasma concentration-time curve (AUC) after transdermal administration or subcutaneous injection was calculated by the trapezoidal formula and extrapolation to infinite time based on monoexponential equation [26].
The PTH in the plasma sample was extracted and purified using SEP-columns. […] Concentrations of PTH were determined using the PTH (1-34) ELISA kit (PTH (1-34), Human, EIA Kit, High Sensitivity, Peninsula Laboratories International, Inc. San Carlos, CA, USA).

[2] = test system: rats with ovariectomy (OVX)-induced osteoporosis; experiment: Therapeutic potential in post-menopausal rat model of osteoporosis (OVX); type: in vivo, female Sprague-Dawley rats; conditions: subcutaneous injection of PTH 20 µg/rat, hematoxylin and eosin
Experimental: The post-menopausal rat model of osteoporosis was established by performing ovariectomies (OVX) of female Sprague-Dawley rats. Four weeks following OVX, PTH-loaded MNs (20 µg/rat) were applied to the rats twice a week, for a period of 4 weeks. Separately, PTH (20 µg/rat) was subcutaneously injected into the rats. Eight weeks after OVX, rats were euthanized, and the tibias were excised and fixed in 4% paraformaldehyde in PBS. The fixed tibias were then embedded in paraffin and sectioned by microtome. The sections of tibias were subsequently stained with hematoxylin and eosin and then used for histological analysis.

[3] = Storage stability of PTH in MNs fabricated from HA and in PBS solution; type: physicochemical; conditions: PTH dissolved in PBS, PTH (1-34) ELISA, mean of three experiments
Experimental: PTH-loaded MNs were packaged into an aluminum sachet purged with nitrogen and stored at −20 °C, 4 °C, or at room temperature (15–20 °C). PTH solution dissolved in PBS was kept at the same temperatures as the control. Following one month of storage, the needles were separated from the back layers of MNs and dissolved in PBS. The actual amounts of PTH present in the needle parts of the MNs were measured using the PTH (1-34) ELISA kit (PTH (1-34), Human, EIA Kit, High Sensitivity, Peninsula Laboratories International, Inc. San Carlos, CA, USA).

Cmax ([1]; Wistar): 15.1 ± 4.6 ng/mL | Tmax ([1]; in vivo): 30 min | initial PTH retained in the solution after storage ([3]; stored one month at 4 °C): ~84% | initial PTH retained in the solution after storage ([3]; stored one month at room temperature (15–20 °C)): ~13% | initial PTH retained in the solution after storage ([3]; stored one month at −20 °C): approximately 98%
SMILES: CC[C@H](C)[C@H](NC(=O)[C@H](CCC(=O)O)NC(=O)[C@H](CO)NC(=O)[C@@H](NC(=O)[C@@H](N)CO)C(C)C)C(=O)N[C@@H](CCC(N)=O)C(=O)N[C@@H](CC(C)C)C(=O)N[C@@H](CCSC)C(=O)N[C@@H](Cc1c[nH]cn1)C(=O)N[C@@H](CC(N)=O)C(=O)N[C@@H](CC(C)C)C(=O)NCC(=O)N[C@@H](CCCCN)C(=O)N[C@@H](Cc1c[nH]cn1)C(=O)N[C@@H](CC(C)C)C(=O)N[C@@H](CC(N)=O)C(=O)N[C@@H](CO)C(=O)N[C@@H](CCSC)C(=O)N[C@@H](CCC(=O)O)C(=O)N[C@@H](CCCNC(=N)N)C(=O)N[C@H](C(=O)N[C@@H](CCC(=O)O)C(=O)N[C@@H](Cc1c[nH]c2ccccc12)C(=O)N[C@@H](CC(C)C)C(=O)N[C@@H](CCCNC(=N)N)C(=O)N[C@@H](CCCCN)C(=O)N[C@@H](CCCCN)C(=O)N[C@@H](CC(C)C)C(=O)N[C@@H](CCC(N)=O)C(=O)N[C@@H](CC(=O)O)C(=O)N[C@H](C(=O)N[C@@H](Cc1c[nH]cn1)C(=O)N[C@@H](CC(N)=O)C(=O)N[C@@H](Cc1ccccc1)C(=O)O)C(C)C)C(C)C [PTH, Human parathyroid hormone (1-34)]
effect on decrease in bone matrix density (tibia histology) [2]: effectively prevented
